The values that follow are results of earlier work, collected in patent US20230110028A1, “OXYBATE POLYETHYLENE GLYCOL PRODRUGS” (Tris Pharma, Inc., priority 2021, published 2023).

As usually defined, the Solubility is the concentration that dissolves in the medium under given conditions.

Bounds are passed on as bounds.

Experiment in data set [1]: not given
The source holds these as a separate data set.

The conditions of data set [2]: forms gamma-butyrolactone (GBL) at pH below 7.
The conditions of data set [3]: in vivo.

As to Hydroxypropyl-β-cyclodextrin, the Solubility was not below 600 mg/mL.

As to Randomly methylated-β-cyclodextrin, the Solubility is not below 500 mg/mL.

For the compound `O=C(O)CCCO` [Sodium oxybate], the “solubility in aqueous solutions” value in data set [1] is recorded as “very soluble”. The “stability in acidic medium” value in data set [2] is “unstable”.

Sulfobutyl ether-β-cyclodextrin: the Solubility is recorded as not below 500 mg/mL.

Consider `O=C(O)CCCO` [oxybate, gamma hydroxybutyrate], for which, in data set [3], the elimination half-life was 30 to 40 min.
